Assay results: patent US9603834B2, “1,2- bis-sulfonamide derivatives as chemokine receptor modulators” (Allergan, Inc., priority 2010, dated 2017)

Molecular target: CCR2 (Homo sapiens (Human), UniProt P41597)
Experiment: Calcium activity on FLIPR Tetra in HEK-Gqi5 cells stably expressing CCR2
Format: cell-based
Conditions: FLIPR Tetra calcium assay
Protocol: HEK-Gqi5 cells stably expressing CCR2 were cultured in (DMEM high glucose, 10% FBS, 1% PSA, 400 μg/ml geneticin and 50 μg/ml hygromycin. Appropriate positive control chemokines (MCP-1, MIP1A or RANTES) was used as the positive control agonist for screening compound-induced calcium activity assayed on the FLIPR^Tetra. The drug plates were prepared in 384-well microplates using the EP3 and the MultiPROBE robotic liquid handling systems. Compounds were synthesized and tested for CCR2 activity.

CCR2, sequence (P41597 whole entry, species assumed): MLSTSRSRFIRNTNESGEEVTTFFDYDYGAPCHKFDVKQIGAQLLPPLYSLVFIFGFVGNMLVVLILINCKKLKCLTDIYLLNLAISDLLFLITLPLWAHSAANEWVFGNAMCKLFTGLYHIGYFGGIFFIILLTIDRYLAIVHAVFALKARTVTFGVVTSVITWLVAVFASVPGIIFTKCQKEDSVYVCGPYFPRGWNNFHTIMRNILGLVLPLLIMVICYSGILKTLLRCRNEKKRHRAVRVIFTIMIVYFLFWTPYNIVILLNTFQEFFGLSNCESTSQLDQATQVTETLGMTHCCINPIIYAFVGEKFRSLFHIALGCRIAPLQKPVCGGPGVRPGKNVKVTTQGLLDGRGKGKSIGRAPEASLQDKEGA

Compound	CCR2 % Antagonism	IC50
O=S(=O)(Nc1cc(Cl)c(Cl)cc1NS(=O)(=O)c1ccc(Cl)s1)c1cccs1 [5-chloro-N-{4,5-dichloro-2-[(2-thienylsulfonyl)amino]phenyl}thiophene-2-sulfonamide]	89%	263 nM
O=S(=O)(Nc1cc(Cl)c(Cl)cc1NS(=O)(=O)c1cccs1)c1ccc(Cl)nc1 [6-chloro-N-{4,5-dichloro-2-[(2-thienylsulfonyl)amino]phenyl}pyridine-3-sulfonamide]	100%	281 nM
Cc1cc(S(=O)(=O)Nc2cc(Cl)c(Cl)cc2NS(=O)(=O)c2cccs2)ccc1Br [N-(2-{[(4-bromo-3-methylphenyl)sulfonyl]amino}-4,5-dichlorophenyl)thiophene-2-sulfonamide]	91%	471 nM
O=S(=O)(Nc1cc(Cl)c(Cl)cc1NS(=O)(=O)c1ccc(F)cc1F)c1cccs1 [N-(4,5-dichloro-2-{[(2,4-difluorophenyl)sulfonyl]amino}phenyl)thiophene-2-sulfonamide]	89%	451 nM
O=S(=O)(Nc1cc(Cl)c(Cl)cc1NS(=O)(=O)c1ccccc1F)c1cccs1 [N-(4,5-dichloro-2-{[(2-fluorophenyl)sulfonyl]amino}phenyl)thiophene-2-sulfonamide]	67%	402 nM
O=S(=O)(Nc1cc(Cl)c(Cl)cc1NS(=O)(=O)c1cccs1)c1ccc(Cl)c(Cl)c1 [N-(4,5-dichloro-2-{[(3,4-dichlorophenyl)sulfonyl]amino}phenyl)thiophene-2-sulfonamide]	79%	394 nM
O=S(=O)(Nc1cc(Cl)c(Cl)cc1NS(=O)(=O)c1cc(Cl)cc(Cl)c1O)c1cccs1 [N-(4,5-dichloro-2-{[(3,5-dichloro-2-hydroxyphenyl)sulfonyl]amino}phenyl)thiophene-2-sulfonamide]	82%	482 nM
O=S(=O)(Nc1cc(Cl)c(Cl)cc1NS(=O)(=O)c1cccc(Cl)c1F)c1cccs1 [N-(4,5-dichloro-2-{[(3-chloro-2-fluorophenyl)sulfonyl]amino}phenyl)thiophene-2-sulfonamide]	96%	217 nM
O=S(=O)(Nc1cc(Cl)c(Cl)cc1NS(=O)(=O)c1cccs1)c1cccc(Cl)c1 [N-(4,5-dichloro-2-{[(3-chlorophenyl)sulfonyl]amino}phenyl)thiophene-2-sulfonamide]	90%	391 nM
O=S(=O)(Nc1cc(Cl)c(Cl)cc1NS(=O)(=O)c1ccc(Cl)cc1F)c1cccs1 [N-(4,5-dichloro-2-{[(4-chloro-2-fluorophenyl)sulfonyl]amino}phenyl)thiophene-2-sulfonamide]	94%	361 nM
O=S(=O)(Nc1cc(Cl)c(Cl)cc1NS(=O)(=O)c1cccs1)c1ccc(F)cc1 [N-(4,5-dichloro-2-{[(4-fluorophenyl)sulfonyl]amino}phenyl)thiophene-2-sulfonamide]	91%	441 nM
O=S(=O)(Nc1cccnc1NS(=O)(=O)c1cccs1)c1ccc(Cl)c(C(F)(F)F)c1 [N-[3-({[4-chloro-3-(trifluoromethyl)phenyl]sulfonyl}amino)pyridin-2-yl]thiophene-2-sulfonamide]	85%	349 nM
O=S(=O)(Nc1cc(Cl)c(Cl)cc1NS(=O)(=O)c1cccs1)c1cccc(C(F)(F)F)c1 [N-[4,5-dichloro-2-({[3-(trifluoromethyl)phenyl]sulfonyl}amino)phenyl]thiophene-2-sulfonamide]	88%	306 nM
O=S(=O)(Nc1cc(Cl)c(Cl)cc1NS(=O)(=O)c1cccs1)c1ccc(F)c(C(F)(F)F)c1 [N-[4,5-dichloro-2-({[4-fluoro-3-(trifluoromethyl)phenyl]sulfonyl}amino)phenyl]thiophene-2-sulfonamide]	89%	432 nM
O=S(=O)(Nc1cc(Cl)c(Cl)cc1NS(=O)(=O)c1cccs1)c1cc2ccccc2o1 [N-{4,5-dichloro-2-[(2-thienylsulfonyl)amino]phenyl}-1-benzofuran-2-sulfonamide]	100%	96 nM
O=S(=O)(Nc1cc(Cl)c(Cl)cc1NS(=O)(=O)c1cc2ccccc2s1)c1cccs1 [N-{4,5-dichloro-2-[(2-thienylsulfonyl)amino]phenyl}-1-benzothiophene-2-sulfonamide]	94%	494 nM
Cc1ccc(S(=O)(=O)Nc2cc(Cl)c(Cl)cc2NS(=O)(=O)c2cccs2)o1 [N-{4,5-dichloro-2-[(2-thienylsulfonyl)amino]phenyl}-5-methylfuran-2-sulfonamide]	95%	311 nM

The remaining lines, values ahead:

CCR2 % Antagonism	IC50	Compound
89%	478 nM	O=S(=O)(Nc1cc(Cl)ccc1NS(=O)(=O)c1c(Cl)cccc1Cl)c1cc2ccccc2o1 [N-(5-chloro-2-{[(2,6-dichlorophenyl)sulfonyl]amino}phenyl)-1-benzofuran-2-sulfonamide]
99%	153 nM	O=S(=O)(Nc1cc(Cl)ccc1NS(=O)(=O)c1c(F)cccc1F)c1cc2ccccc2o1 [N-(5-chloro-2-{[(2,6-difluorophenyl)sulfonyl]amino}phenyl)-1-benzofuran-2-sulfonamide]
96%	339 nM	Cc1ccc(S(=O)(=O)Nc2ccc(Cl)cc2NS(=O)(=O)c2cc3ccccc3o2)s1 [N-(5-chloro-2-{[(5-methyl-2-thienyl)sulfonyl]amino}phenyl)-1-benzofuran-2-sulfonamide]
110%	423 nM	Cn1cnc(S(=O)(=O)Nc2ccc(Cl)cc2NS(=O)(=O)c2cc3ccccc3o2)c1 [N-{2-[(1-benzofuran-2-ylsulfonyl)amino]-4-chlorophenyl}-1-methyl-1H-imidazole-4-sulfonamide]
96%	185 nM	Cn1ccc(S(=O)(=O)Nc2ccc(Cl)cc2NS(=O)(=O)c2cc3ccccc3o2)n1 [N-{2-[(1-benzofuran-2-ylsulfonyl)amino]-4-chlorophenyl}-1-methyl-1H-pyrazole-3-sulfonamide]
108%	183 nM	Cc1n[nH]c(C)c1S(=O)(=O)Nc1ccc(Cl)cc1NS(=O)(=O)c1cc2ccccc2o1 [N-{2-[(1-benzofuran-2-ylsulfonyl)amino]-4-chlorophenyl}-3,5-dimethyl-1H-pyrazole-4-sulfonamide]
80%	294 nM	Cc1nn(C)c(Cl)c1S(=O)(=O)Nc1ccc(Cl)cc1NS(=O)(=O)c1cc2ccccc2o1 [N-{2-[(1-benzofuran-2-ylsulfonyl)amino]-4-chlorophenyl}-5-chloro-1,3-dimethyl-1H-pyrazole-4-sulfonamide]
90%	145 nM	O=S(=O)(Nc1ccc(Cl)cc1NS(=O)(=O)c1cccs1)c1cc2ccccc2o1 [N-{4-chloro-2-[(2-thienylsulfonyl)amino]phenyl}-1-benzofuran-2-sulfonamide]
86%	20 nM	O=S(=O)(Nc1cc(Cl)ccc1NS(=O)(=O)c1cccs1)c1cc2ccccc2o1 [N-{5-chloro-2-[(2-thienylsulfonyl)amino]phenyl}-1-benzofuran-2-sulfonamide]
96%	246 nM	COC(=O)c1sccc1S(=O)(=O)Nc1ccc(Cl)cc1NS(=O)(=O)c1cc2ccccc2o1 [methyl 3-[({2-[(1-benzofuran-2-ylsulfonyl)amino]-4-chlorophenyl}amino)sulfonyl]thiophene-2-carboxylate]
